Experimental data: paper PMC10382584, “Macrocyclization of linear molecules by deep learning to facilitate macrocyclic drug candidates discovery” (Nature Communications, 2023)

What was measured:
Assay in all cases: biochemical
Design in all cases: DiscoveRx KINOMEscan competition binding, percent of DMSO control signal at 100 nM
Conditions in all cases: read-out: Fig. 4a / Percent Control / Compound 1; percent of DMSO control, competition binding
[1] = molecular target: T1, NIK (Homo sapiens, UniProt Q99558)
T1 construct: gene MAP3K14

[2] = molecular target: CSNK2A1 (Homo sapiens, UniProt P68400)
[3] = molecular target: CSF1R-autoinhibited (Homo sapiens, UniProt P07333)
[4] = molecular target: FGFR2 (Homo sapiens, UniProt P21802)
[5] = molecular target: CASK (Homo sapiens, UniProt O14936)
[6] = molecular target: T2, JAK3(JH1domain-catalytic) (Homo sapiens, UniProt P52333)
T2 construct: JH1domain-catalytic

[7] = molecular target: T3, TAK1 (Homo sapiens, UniProt O43318)
T3 construct: gene MAP3K7
T3 sequence (O43318 whole entry): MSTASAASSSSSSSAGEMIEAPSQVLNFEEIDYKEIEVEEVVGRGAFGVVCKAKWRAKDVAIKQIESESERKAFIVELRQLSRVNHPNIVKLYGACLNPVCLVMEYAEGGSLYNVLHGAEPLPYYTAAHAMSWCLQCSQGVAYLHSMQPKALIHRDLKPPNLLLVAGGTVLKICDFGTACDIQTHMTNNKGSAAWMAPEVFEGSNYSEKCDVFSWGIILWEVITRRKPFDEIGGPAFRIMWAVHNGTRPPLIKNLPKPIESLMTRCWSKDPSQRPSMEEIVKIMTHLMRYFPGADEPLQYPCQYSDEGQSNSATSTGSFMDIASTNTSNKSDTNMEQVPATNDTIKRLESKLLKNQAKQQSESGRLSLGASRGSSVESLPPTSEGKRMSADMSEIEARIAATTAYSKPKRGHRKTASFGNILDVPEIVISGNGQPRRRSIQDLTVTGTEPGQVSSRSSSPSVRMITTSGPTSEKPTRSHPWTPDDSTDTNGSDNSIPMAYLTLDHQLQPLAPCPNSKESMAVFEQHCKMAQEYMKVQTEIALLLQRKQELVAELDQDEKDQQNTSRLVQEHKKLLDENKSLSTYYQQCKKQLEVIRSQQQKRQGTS

[8] = molecular target: FLT4 (Homo sapiens, UniProt P35916)
[9] = molecular target: T4, SgK110 (Homo sapiens, UniProt P0C264)
T4 construct: gene SBK3

[10] = molecular target: SIK2 (Homo sapiens, UniProt Q9H0K1)
Sequence of SIK2 (Q9H0K1 whole entry): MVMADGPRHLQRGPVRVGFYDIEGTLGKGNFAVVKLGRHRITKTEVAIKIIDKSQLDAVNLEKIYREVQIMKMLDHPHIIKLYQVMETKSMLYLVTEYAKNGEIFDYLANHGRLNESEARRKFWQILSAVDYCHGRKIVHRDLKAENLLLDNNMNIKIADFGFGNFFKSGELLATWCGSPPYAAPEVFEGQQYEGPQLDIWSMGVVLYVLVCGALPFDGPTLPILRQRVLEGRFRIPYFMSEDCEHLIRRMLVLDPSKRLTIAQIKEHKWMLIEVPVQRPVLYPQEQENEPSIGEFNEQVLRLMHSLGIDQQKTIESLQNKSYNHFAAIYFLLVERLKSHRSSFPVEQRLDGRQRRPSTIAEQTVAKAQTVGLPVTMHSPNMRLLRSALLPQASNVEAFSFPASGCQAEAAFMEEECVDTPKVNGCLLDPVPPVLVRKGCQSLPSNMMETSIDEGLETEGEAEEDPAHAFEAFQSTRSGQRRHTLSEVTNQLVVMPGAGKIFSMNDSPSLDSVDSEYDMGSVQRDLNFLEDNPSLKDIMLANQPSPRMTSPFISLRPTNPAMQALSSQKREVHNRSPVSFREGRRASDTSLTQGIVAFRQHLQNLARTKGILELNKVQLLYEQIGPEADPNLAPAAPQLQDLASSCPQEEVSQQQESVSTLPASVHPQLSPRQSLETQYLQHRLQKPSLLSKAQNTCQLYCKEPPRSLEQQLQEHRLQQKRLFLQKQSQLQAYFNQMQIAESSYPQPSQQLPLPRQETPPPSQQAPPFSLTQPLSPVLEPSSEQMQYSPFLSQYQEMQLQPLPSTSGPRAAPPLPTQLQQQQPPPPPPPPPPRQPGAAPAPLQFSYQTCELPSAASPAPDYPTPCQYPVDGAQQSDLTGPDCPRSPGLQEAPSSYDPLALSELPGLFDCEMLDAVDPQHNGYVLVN

[11] = molecular target: STK36 (Homo sapiens, UniProt Q9NRP7)
Sequence of STK36 (Q9NRP7 whole entry): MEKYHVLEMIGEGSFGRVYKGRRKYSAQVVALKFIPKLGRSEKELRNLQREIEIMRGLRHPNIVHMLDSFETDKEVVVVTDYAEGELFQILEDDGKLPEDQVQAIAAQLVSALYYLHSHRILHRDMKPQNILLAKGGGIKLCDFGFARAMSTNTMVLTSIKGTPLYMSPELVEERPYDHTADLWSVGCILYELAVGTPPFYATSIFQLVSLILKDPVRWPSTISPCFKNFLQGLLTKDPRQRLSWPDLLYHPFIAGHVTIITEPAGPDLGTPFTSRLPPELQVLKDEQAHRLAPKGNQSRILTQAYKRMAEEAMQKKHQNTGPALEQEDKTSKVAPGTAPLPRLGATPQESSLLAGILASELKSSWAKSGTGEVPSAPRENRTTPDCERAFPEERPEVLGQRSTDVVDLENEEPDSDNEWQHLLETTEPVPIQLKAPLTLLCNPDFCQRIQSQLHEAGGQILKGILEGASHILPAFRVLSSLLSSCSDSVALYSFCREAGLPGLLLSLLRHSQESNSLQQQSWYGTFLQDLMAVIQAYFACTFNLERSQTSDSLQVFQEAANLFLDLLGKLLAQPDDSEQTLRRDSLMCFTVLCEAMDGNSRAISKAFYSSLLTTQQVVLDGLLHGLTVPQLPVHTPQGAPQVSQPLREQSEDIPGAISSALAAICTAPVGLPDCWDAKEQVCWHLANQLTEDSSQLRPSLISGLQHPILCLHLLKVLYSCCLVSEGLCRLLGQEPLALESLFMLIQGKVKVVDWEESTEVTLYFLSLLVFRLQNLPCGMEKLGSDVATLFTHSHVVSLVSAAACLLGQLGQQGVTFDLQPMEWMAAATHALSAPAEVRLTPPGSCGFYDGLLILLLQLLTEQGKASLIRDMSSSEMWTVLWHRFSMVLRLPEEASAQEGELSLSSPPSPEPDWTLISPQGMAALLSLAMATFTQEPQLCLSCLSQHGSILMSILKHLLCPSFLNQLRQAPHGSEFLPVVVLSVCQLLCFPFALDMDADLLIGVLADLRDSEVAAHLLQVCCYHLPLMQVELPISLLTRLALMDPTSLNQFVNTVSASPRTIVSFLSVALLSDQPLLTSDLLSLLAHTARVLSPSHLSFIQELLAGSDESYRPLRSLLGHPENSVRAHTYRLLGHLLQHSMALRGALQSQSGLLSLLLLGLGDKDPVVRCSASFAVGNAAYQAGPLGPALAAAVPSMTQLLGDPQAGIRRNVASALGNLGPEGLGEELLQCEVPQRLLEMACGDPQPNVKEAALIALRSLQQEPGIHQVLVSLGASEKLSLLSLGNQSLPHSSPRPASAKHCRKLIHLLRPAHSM

[12] = molecular target: T5, ABL1(Q252H)-nonphosphorylated (Homo sapiens, UniProt P00519, Q252H)
T5 construct: nonphosphorylated

[13] = molecular target: TESK1 (Homo sapiens, UniProt Q15569)
[14] = molecular target: T6, p38-alpha (Homo sapiens, UniProt Q16539)
T6 construct: gene MAPK14

[15] = molecular target: T7, DMPK2 (Homo sapiens, UniProt Q6DT37)
T7 construct: gene CDC42BPG

[16] = molecular target: MAK (Homo sapiens, UniProt P20794)
[17] = molecular target: MAP3K2 (Homo sapiens, UniProt Q9Y2U5)
Sequence of MAP3K2 (Q9Y2U5 whole entry): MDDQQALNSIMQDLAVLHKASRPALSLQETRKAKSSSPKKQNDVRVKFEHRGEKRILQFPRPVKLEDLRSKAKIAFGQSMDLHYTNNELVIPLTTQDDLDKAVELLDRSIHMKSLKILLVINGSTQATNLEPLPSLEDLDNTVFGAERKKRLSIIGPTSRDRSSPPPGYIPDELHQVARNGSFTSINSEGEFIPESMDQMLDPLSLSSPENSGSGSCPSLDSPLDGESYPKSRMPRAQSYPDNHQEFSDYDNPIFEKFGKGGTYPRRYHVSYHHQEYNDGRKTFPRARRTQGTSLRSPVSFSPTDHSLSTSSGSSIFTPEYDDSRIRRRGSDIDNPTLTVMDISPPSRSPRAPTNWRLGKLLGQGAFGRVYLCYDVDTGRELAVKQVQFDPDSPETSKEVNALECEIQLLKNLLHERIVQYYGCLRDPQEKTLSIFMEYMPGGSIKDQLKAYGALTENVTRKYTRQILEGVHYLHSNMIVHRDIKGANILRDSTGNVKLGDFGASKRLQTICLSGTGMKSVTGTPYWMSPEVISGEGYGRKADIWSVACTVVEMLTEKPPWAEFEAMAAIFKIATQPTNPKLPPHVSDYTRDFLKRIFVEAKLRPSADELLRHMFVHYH

[18] = molecular target: EGFR(G719S) (Homo sapiens, UniProt P00533, G719S)
[19] = molecular target: ERBB3 (Homo sapiens, UniProt P21860)
[20] = molecular target: PIK3CA(E542K) (Homo sapiens, UniProt P42336, E542K)
Sequence of PIK3CA(E542K) (P42336 whole entry E542K): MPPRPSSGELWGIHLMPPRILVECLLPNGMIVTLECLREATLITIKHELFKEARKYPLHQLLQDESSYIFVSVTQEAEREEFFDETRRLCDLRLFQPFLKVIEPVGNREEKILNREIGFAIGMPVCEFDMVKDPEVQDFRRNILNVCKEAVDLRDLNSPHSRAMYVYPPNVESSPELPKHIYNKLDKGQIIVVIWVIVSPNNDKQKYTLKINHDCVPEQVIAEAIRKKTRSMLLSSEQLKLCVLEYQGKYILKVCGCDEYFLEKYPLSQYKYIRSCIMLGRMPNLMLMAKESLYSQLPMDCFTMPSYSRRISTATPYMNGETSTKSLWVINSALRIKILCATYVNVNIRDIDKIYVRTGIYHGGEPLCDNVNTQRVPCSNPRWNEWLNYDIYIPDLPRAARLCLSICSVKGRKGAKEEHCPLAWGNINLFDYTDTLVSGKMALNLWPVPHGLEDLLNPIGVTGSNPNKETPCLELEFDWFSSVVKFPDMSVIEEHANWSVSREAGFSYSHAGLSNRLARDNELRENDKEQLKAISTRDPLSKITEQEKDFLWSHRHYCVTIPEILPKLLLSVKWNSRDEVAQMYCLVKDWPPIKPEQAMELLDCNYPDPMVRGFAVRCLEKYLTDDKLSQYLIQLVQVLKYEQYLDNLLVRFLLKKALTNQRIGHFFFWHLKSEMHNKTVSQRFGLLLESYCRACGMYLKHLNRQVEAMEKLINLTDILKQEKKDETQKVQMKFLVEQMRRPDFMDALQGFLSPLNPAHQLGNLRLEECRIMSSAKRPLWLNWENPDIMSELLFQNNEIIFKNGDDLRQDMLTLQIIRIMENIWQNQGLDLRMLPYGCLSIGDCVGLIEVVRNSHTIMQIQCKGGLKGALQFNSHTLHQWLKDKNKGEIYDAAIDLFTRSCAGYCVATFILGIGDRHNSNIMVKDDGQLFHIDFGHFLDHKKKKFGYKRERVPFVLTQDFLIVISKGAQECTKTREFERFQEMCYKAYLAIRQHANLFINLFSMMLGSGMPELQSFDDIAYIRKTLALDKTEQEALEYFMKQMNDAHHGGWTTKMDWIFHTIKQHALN

[21] = molecular target: KIT(D816H) (Homo sapiens, UniProt P10721, D816H)
[22] = molecular target: EPHB2 (Homo sapiens, UniProt P29323)
[23] = molecular target: TIE1 (Homo sapiens, UniProt P35590)
[24] = molecular target: T8, YANK3 (Homo sapiens, UniProt Q86UX6)
T8 construct: gene STK32C
T8 sequence (Q86UX6 whole entry): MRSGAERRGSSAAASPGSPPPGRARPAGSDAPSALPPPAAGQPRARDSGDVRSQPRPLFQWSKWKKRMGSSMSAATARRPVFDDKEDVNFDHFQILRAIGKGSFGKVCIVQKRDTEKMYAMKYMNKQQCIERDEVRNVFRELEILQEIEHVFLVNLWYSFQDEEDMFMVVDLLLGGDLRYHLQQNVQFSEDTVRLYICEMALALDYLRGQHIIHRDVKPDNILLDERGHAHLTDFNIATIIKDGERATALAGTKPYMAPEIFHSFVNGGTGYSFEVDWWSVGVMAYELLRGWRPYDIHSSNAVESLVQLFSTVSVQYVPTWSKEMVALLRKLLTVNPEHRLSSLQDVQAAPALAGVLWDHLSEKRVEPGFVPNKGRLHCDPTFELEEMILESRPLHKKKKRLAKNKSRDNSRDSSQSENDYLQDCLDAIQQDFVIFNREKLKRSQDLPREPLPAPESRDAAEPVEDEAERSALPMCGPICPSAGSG

[25] = molecular target: CDK8 (Homo sapiens, UniProt P49336)
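Note: KINOMEscan kinase panel binding assay, signal normalized between DMSO as 100% and a positive control compound as 0%.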

Cc1cnc2nc1Nc1cccc(c1)COCc1cc(ccc1OCCN1CCCC1)N2 [Compound 1]
remaining binding at 0.1 µM [1]: 74% | remaining binding at 0.1 µM [2]: 57% | remaining binding at 0.1 µM [3]: 54% | remaining binding at 0.1 µM [4]: 79% | remaining binding at 0.1 µM [5]: 73% | remaining binding at 0.1 µM [6]: 12% | remaining binding at 0.1 µM [7]: 67% | remaining binding at 0.1 µM [8]: 85% | remaining binding at 0.1 µM [9]: 65% | remaining binding at 0.1 µM [10]: 94% | remaining binding at 0.1 µM [11]: 97% | remaining binding at 0.1 µM [12]: 51% | remaining binding at 0.1 µM [13]: 85% | remaining binding at 0.1 µM [14]: 100% | remaining binding at 0.1 µM [15]: 98% | remaining binding at 0.1 µM [16]: 100% | remaining binding at 0.1 µM [17]: 50% | remaining binding at 0.1 µM [18]: 91% | remaining binding at 0.1 µM [19]: 100% | remaining binding at 0.1 µM [20]: 89% | remaining binding at 0.1 µM [21]: 60% | remaining binding at 0.1 µM [22]: 88% | remaining binding at 0.1 µM [23]: 94% | remaining binding at 0.1 µM [24]: 99% | remaining binding at 0.1 µM [25]: 100%
